From patent US8415376B2, “Inhibitors of PI3 kinase” (Amgen Inc., priority 2008, dated 2013)

Assays:
[1] = tested on: phosphorylation of Akt at Ser473; assay: Cell-based phospho-Akt Ser473 assay (HCT116 cell); conditions: HCT 116 human colon carcinoma cells, IGF-1 stimulated; average
Description: Cell-Based Phospho-Akt Ser473 Assay (HCT116 Cell)
This assay determines the ability of a compound to inhibit the phosphorylation of […] in Akt using a MSD based sandwich immunoassay (Meso Scale Detection, Meso Scale Discovery (MSD), Gaithersburg, Md.). HCT 116 human colon carcinoma cell lines can be grown in McCoy's 5A growth medium (GIBCO, Carlsbad, Calif.) containing 10% FBS (GIBCO, Carlsbad, Calif.) and X1 Penicillin-streptomycin-glutamine (GIBCO, Carlsbad, Calif.). Prior to the assay, cells can be detached from the culture flask with trypsin, and re-suspended in complete media to give a final concentration of 1.6×10^5 cells per mL. Aliquots (100 μl) of the HCT116 cell suspension can be seeded into each well of a 96 well tissue culture plate to give a final density of 16,000 cells per well. Cells can then be incubated overnight at 37° C.
The following day the cells can be treated with serially diluted test compounds and incubated for 2 hours at 37° C. The culture media on the HCT 116 cells can be replaced with 189 μL McCoys media, supplemented with 0.1% BSA (ICN Biomedicals, Inc., Costa Mesa, Calif.). Compounds can be prepared as either 10 mM or 0.5 mM stock solutions in DMSO, and serially diluted 3 fold in a 10-point dose-response curve to give final concentrations that are 200-fold greater than the desired final test concentration. Aliquots (1 μL) of serially-diluted compounds can be transferred to 96 well tissue culture plates containing the HCT 116 cells. […] As a maximum response control, wells can contain 0.5% DMSO in place of compound. The plates can be mixed at 700 rpm for 2 min to ensure even distribution of the test compound and incubated for 2 hours at 37° C. Cells can then be stimulated with insulin-like growth factor 1 (Sigma, St Louis, Mo.) at final concentration of 100 ng/ml for 15 minutes at 37° C. The media can then be removed and the cells treated with 80 μL cell-lysis buffer (MSD) containing a cocktail of protease and phosphatase inhibitors for one hour at 4° C.
25 μL Cell lysate can then be transferred to pre-blocked MSD assay plates pre-coated with a capture antibody specific for Akt, and the plates can be incubated for 2 hours at room temperature. The cell lysates can then be removed and plates can then be washed four times with 200 μl per well of Tris wash buffer (500 mM Tris, PH 7.5, 1.5 M NaCl, 0.2% Tween-20). Subsequently cells can be incubated for 1 hour at room temperature with a 25 μL solution containing the detection antibody, anti-phospho Akt (Ser 473) labeled with an electrochemiluminescent compound (Meso Scale Discovery SULPHO-TAG™ label, MSD, Gaithersburg, Md.). The detection antibody can be removed and plates can then be washed four times with 200 μL per well of Tris wash buffer. An aliquot of 150 μL of diluted MSD read buffer can then be applied to each well, and the electrochemiluminescent signal can be measured using a MSD SECTOR™ plate reader (Meso Scale Discovery, Gaithersburg, Md.). This instrument measures the intensity of emitted light to determine a quantitative measure of phosphorylated Akt in each well. The dose-response data obtained with each compound can be analyzed and the IC50 inhibition of Akt phosphorylation at Ser473 can be calculated.
Activity data for the compounds tested in the PI3K cell based Akt assay is provided in Table 1 under the column heading HCT116 Cell.

[2] = molecular target: T1, PI3Kβ (Homo sapiens, UniProt P42338); assay: In vitro PI3 kinase enzyme assay (PI3K ATP loss), beta; format: biochemical; conditions: average if run more than once
T1 construct: Full length p110 subunits of PI3K α, β and δ, N-terminally labeled with polyHis tag; polyHis (N); made in house; host or cells: Sf9 insect cells (baculovirus)
Description: Full length p110 subunits of PI3K α, β and δ, N-terminally labeled with polyHis tag, can be co-expressed with p85 with Baculo virus expression vectors in sf9 insect cells. P110/p85 heterodimers can be purified by sequential Ni-NTA, Q-HP, Superdex-100 chromatography. Purified α, β and δ isozymes can be stored at −20° C. in 20 mM Tris, pH 8, 0.2M NaCl, 50% glycerol, 5 mM DTT, 2 mM Na cholate. […] The γ isozyme can be purified by sequential Ni-NTA, Superdex-200, Q-HP chromatography. The γ isozyme can be stored frozen at −80° C. in NaH2PO4, pH 8, 0.2M NaCl, 1% ethylene glycol, 2 mM β-mercaptoethanol.
In Vitro PI3 Kinase Enzyme Assays (PI3K Atploss)
PI3K enzyme assays (alpha, beta, delta and gamma) can be performed in 25 μL with the above final concentrations of components in white polyproplyene plates. Phosphatidyl inositol phosphoacceptor, PtdIns(4,5)P2 (eg. P4508) can be obtained from Echelon Biosciences, Salt Lake City, Utah. […] Test compounds can be dissolved in DMSO and diluted with three-fold serial dilutions. The compound in DMSO (1 μL) may be added per test well, and the inhibition relative to reactions containing no compound, with and without enzyme can be determined After assay incubation at RT, the reaction can be stopped and residual ATP can be determined by addition of an equal volume of a commercial ATP bioluminescence kit (Perkin Elmer EasyLite, Perkin Elmer, Waltham, Mass.) according to the manufacturer's instructions, and detected using an Analyst GT luminometer.

[3] = molecular target: T2, mTOR (Homo sapiens, UniProt P42345); assay: In vitro mTOR assay (Lanthascreen); format: biochemical; conditions: average if run more than once
T2 construct: purchased Invitrogen (Carlsbad, Calif.)
Description: The Invitrogen (Carlsbad, Calif.) mammalian target of rapamycin (mTOR) Lanthascreen assay can be used to quantitate mTOR kinase activity in an in vitro setting. Active mTOR phosphorylates eukaryotic translation initiation factor 4E binding protein 1 (4E-BP1) on residue threonine 46. This phosphorylation event can be detected with a phospho-specific terbium (Tb) labeled Ab, in turn bringing the Tb label in close proximity to the GFP tagged 4E-BP1 and allowing for time-resolved fluorescence resonance energy transfer (TR-FRET), which correlates 4E-BP1 phosphorylation levels with mTOR kinase activity.
Enzyme reaction buffer can be prepared in deionized water containing 50 mM HEPES (pH 7.5), 0.01% Polysorbate 20, 1 mM EGTA, and 10 mM MnCl2.
Dilutions of the compound to be tested can be prepared in 96-well polypropylene plates (Fisher Scientific, Waltham, Mass.). One row represents a 10-point dose of compound diluted 1:3 in enzyme reaction buffer and 20% dimethyl sulfoxide (DMSO). The top concentration for all compounds is 36 μM. Wells 6 and 12 can serve as the no compound (DMSO only) and high compound controls.
An mTOR substrate solution can prepared in enzyme reaction buffer containing 1600 nM green fluorescent protein tagged eukaryotic translation initiation factor 4E binding protein 1 (GFP-4E-BP1) (Invitrogen, Carlsbad, Calif.) and 28 uM adenosine triphosphate (ATP) (Calbiochem, Gibbstown, N.J.).
mTOR enzyme (Invitrogen, Carlsbad, Calif.) can be diluted in enzyme reaction buffer to a working concentration of 100 ng/mL.
The enzyme assay can be run in 384 well low volume assay plates (Corning, Corning, N.Y.). 2.5 uL of substrate solution containing GFP-4E-BP1 and ATP can be added to appropriate wells in the assay plate followed by 2.5 μL of compound dilutions. 5 μL of appropriately diluted mTOR enzyme can be added and the reaction allowed to proceed for 1 hour at room temperature. Final reagent concentrations in the enzyme assay are 50 ng/mL mTOR, 400 nM GFP-4E-BP1, and 7 μM ATP.
The enzyme assay can be terminated upon the addition of 10 μL of 20 mM EDTA and 4 nM Tb-labeled anti-phospho-4E-BP1 [T46] antibody (Invitrogen, Carlsbad, Calif.). The assay plate can then be incubated at room temperature for 1 hour and results read on a Tecan Safire II plate reader (Tecan, Männedorf, Switzerland).

T1 sequence (P42338 whole entry): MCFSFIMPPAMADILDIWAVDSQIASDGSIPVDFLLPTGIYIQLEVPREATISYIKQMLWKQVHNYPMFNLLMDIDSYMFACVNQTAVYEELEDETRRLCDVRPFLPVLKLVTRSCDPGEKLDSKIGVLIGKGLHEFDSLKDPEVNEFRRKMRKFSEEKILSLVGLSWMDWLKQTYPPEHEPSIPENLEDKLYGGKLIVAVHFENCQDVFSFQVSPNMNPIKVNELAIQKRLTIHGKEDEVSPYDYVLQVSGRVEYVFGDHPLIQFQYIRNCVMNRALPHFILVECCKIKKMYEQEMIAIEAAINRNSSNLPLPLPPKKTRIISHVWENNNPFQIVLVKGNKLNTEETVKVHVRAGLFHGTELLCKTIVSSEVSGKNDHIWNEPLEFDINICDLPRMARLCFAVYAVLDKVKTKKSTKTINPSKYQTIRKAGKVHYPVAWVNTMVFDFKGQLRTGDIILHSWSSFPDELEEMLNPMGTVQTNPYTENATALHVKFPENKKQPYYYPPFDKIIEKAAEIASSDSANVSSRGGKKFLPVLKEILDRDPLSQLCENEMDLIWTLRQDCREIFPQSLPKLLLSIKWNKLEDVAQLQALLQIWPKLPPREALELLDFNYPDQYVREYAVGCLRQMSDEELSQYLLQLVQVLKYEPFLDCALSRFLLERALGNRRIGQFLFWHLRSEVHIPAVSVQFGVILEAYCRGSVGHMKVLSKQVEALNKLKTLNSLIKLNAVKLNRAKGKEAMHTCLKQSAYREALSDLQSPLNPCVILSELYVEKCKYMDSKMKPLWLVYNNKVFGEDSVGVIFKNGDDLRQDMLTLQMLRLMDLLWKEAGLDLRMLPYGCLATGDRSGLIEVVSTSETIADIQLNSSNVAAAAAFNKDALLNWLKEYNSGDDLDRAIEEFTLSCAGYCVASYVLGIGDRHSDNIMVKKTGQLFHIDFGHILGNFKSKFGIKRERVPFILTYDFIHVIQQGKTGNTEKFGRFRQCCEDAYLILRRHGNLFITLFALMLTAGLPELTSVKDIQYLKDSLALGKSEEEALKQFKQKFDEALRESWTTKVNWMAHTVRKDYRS
T1 sequence (P27986 whole entry partner): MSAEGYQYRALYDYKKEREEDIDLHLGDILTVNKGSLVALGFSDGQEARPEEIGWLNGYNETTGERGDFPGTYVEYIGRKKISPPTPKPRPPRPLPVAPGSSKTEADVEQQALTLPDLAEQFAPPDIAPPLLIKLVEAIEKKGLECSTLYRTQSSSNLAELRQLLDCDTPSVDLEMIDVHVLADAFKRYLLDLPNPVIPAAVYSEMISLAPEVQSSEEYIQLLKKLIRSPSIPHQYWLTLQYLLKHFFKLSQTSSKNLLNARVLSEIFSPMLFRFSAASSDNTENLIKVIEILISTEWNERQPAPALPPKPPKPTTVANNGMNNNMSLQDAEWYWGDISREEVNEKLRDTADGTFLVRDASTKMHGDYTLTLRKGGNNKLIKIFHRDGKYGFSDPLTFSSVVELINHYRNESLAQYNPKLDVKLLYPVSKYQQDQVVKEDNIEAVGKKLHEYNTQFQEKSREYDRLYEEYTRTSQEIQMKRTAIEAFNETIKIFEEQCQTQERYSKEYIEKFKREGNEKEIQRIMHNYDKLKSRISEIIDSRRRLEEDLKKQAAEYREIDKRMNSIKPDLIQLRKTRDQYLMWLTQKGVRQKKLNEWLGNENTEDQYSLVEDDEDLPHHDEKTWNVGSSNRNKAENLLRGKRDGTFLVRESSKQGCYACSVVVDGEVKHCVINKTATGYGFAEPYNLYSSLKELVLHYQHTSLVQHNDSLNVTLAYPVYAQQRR
T2 sequence (P42345 1360-2549 limits assumed): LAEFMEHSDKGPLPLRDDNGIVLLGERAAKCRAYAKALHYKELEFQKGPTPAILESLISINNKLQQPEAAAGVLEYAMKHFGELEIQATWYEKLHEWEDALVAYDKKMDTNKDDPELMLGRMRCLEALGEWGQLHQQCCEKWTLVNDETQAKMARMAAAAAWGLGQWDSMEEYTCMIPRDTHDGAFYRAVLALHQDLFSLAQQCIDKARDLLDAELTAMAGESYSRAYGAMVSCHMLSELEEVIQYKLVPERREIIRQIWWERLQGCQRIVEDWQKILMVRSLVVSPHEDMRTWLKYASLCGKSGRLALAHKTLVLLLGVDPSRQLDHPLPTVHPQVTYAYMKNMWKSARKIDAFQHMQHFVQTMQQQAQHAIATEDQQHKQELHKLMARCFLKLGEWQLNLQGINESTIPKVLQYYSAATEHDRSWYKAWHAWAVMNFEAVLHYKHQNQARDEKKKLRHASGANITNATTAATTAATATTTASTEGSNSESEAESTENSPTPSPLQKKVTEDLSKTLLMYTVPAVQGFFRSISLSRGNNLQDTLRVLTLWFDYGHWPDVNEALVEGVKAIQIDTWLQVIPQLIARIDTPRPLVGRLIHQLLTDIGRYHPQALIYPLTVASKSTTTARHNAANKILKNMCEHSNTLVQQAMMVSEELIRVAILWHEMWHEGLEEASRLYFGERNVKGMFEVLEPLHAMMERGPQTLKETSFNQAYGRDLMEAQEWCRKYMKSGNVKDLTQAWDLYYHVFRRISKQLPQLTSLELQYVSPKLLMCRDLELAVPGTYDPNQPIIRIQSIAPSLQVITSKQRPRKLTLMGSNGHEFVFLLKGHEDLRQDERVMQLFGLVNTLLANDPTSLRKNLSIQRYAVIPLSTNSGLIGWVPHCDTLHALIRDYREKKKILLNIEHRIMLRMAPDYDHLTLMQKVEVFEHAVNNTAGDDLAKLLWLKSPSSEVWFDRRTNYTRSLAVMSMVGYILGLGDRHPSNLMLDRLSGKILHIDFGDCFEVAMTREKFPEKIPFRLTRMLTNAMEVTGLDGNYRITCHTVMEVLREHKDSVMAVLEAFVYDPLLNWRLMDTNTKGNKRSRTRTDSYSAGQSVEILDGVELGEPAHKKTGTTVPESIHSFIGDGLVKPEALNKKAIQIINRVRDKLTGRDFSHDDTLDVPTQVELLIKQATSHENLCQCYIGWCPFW

| Compound | IC50 [1] | IC50 [2] | IC50 [3] |
| --- | --- | --- | --- |
| O=S(=O)(Nc1cc(-c2ccc3nccc(N4CCOCC4)c3c2)cnc1Cl)c1ccc(F)cc1 [Example 1, N-(2-chloro-5-(4-(4-morpholinyl)-6-quinolinyl)-3-pyridinyl)-4-fluorobenzenesulfonamide] | 0.0174 µM |  |  |
| O=S(=O)(Nc1cc(-c2ccc3nccc(Cl)c3c2)cnc1Cl)c1ccc(F)cc1 [Example 2, N-(2-chloro-5-(4-chloro-6-quinolinyl)-3-pyridinyl)-4-fluorobenzenesulfonamide] | 0.109 µM | 0.0093 µM |  |
| O=S(=O)(Nc1cc(-c2ccc3nccnc3c2)cnc1Cl)c1ccc(F)cc1 [Example 6, N-(2-chloro-5-(6-quinoxalinyl)-3-pyridinyl)-4-fluorobenzenesulfonamide] | 1.59 µM | 0.0254 µM |  |
| O=S(=O)(Nc1cc(-c2ccc3ncc(N4CCOCC4)nc3c2)cnc1Cl)c1ccc(F)cc1 [Example 20, N-(2-chloro-5-(3-(4-morpholinyl)-6-quinoxalinyl)-3-pyridinyl)-4-fluorobenzenesulfonamide] | 0.0062 µM |  |  |
| O=S(=O)(Nc1cc(-c2ccc3nccc(N4CCCCC4)c3c2)cnc1Cl)c1ccc(F)cc1 [Example 24, N-(2-chloro-5-(4-(1-piperidinyl)-6-quinolinyl)-3-pyridinyl)-4-fluorobenzenesulfonamid] | 0.159 µM | 0.0184 µM |  |
| CC(C)N1CCN(c2ccnc3ccc(-c4cnc(Cl)c(NS(=O)(=O)c5ccc(F)cc5)c4)cc23)CC1 [Example 25, N-(2-chloro-5-(4-(4-(1-methylethyl)-1-piperazinyl)-6-quinolinyl)-3-pyridinyl)-4-fluorobenzenesulfonamide] | 0.0189 µM | 0.0119 µM |  |
| COCCOc1ccnc2ccc(-c3cnc(Cl)c(NS(=O)(=O)c4ccc(F)cc4)c3)cc12 [Example 31, N-(2-chloro-5-(4-(2-methoxyethoxy)-6-quinolinyl)-3-pyridinyl)-4-fluorobenzenesulfonamide] | 0.0252 µM | 0.0144 µM |  |
| COc1ncccc1-c1ccnc2ccc(-c3cnc(Cl)c(NS(=O)(=O)c4ccc(F)cc4)c3)cc12 [Example 35, N-(2-chloro-5-(4-(2-methoxy-3-pyridinyl)-6-quinolinyl)-3-pyridinyl)-4-fluorobenzenesulfonamide] | 0.0548 µM | 0.0212 µM |  |
| O=S(=O)(Nc1cc(-c2ccc3ncccc3n2)cnc1Cl)c1ccc(F)cc1 [Example 41, N-(2-chloro-5-(1,5-naphthyridin-2-yl)-3-pyridinyl)-4-fluorobenzenesulfonamide] | 0.629 µM | 0.0597 µM |  |
| COCCN(C)c1cnc2ccc(-c3cnc(Cl)c(NS(=O)(=O)c4ccc(F)cc4)c3)cc2n1 [Example 55, N-(2-chloro-5-(3-((2-methoxyethyl)(methyl)amino)-6-quinoxalinyl)-3-pyridinyl)-4-fluorobenzenesulfonamide] | 0.064 µM | 0.0207 µM |  |
| O=S(=O)(Nc1cc(-c2ccc3ncc(NCCN4CCCCC4)nc3c2)cnc1Cl)c1ccc(F)cc1 [Example 61, N-(2-chloro-5-(3-((2-(1-piperidinyl)ethyl)amino)-6-quinoxalinyl)-3-pyridinyl)-4-fluorobenzenesulfonamide] | 0.0515 µM | 0.0155 µM |  |
| O=S(=O)(Nc1cc(-c2ccc3ncc(N4C[C@H]5CC[C@H](CC5)C4)nc3c2)cnc1Cl)c1ccc(F)cc1 [Example 62, N-(5-(3-(3-azabicyclo[3.2.2]non-3-yl)-6-quinoxalinyl)-2-chloro-3-pyridinyl)-4-fluorobenzenesulfonamide] | 0.263 µM | 0.343 µM |  |
| O=S(=O)(Nc1cc(-c2ccc3ncc(NCCc4ccccc4)nc3c2)cnc1Cl)c1ccc(F)cc1 [Example 64, N-(2-chloro-5-(3-((2-phenylethyl)amino)-6-quinoxalinyl)-3-pyridinyl)-4-fluorobenzenesulfonamide] | 0.188 µM | 0.0597 µM |  |
| CN(Cc1ccccc1)c1cnc2ccc(-c3cnc(Cl)c(NS(=O)(=O)c4ccc(F)cc4)c3)cc2n1 [Example 65, N-(5-(3-(benzyl(methyl)amino)-6-quinoxalinyl)-2-chloro-3-pyridinyl)-4-fluorobenzenesulfonamide] | 0.279 µM | 0.0303 µM |  |
| COC1CCN(c2cnc3ccc(-c4cnc(Cl)c(NS(=O)(=O)c5ccc(F)cc5)c4)cc3n2)CC1 [Example 69, N-(2-chloro-5-(3-(4-methoxy-1-piperidinyl)-6-quinoxalinyl)-3-pyridinyl)-4-fluorobenzenesulfonamide] | 0.0526 µM | 0.0344 µM |  |
| O=S(=O)(Nc1cc(-c2ccc3ncc(NCC4CCCCC4)nc3c2)cnc1Cl)c1ccc(F)cc1 [Example 70, N-(2-chloro-5-(3-((cyclohexylmethyl)amino)-6-quinoxalinyl)-3-pyridinyl)-4-fluorobenzenesulfonamide] | 0.151 µM | 0.0532 µM |  |
| COCCNc1cnc2ccc(-c3cnc(Cl)c(NS(=O)(=O)c4ccc(F)cc4)c3)cc2n1 [Example 73, N-(2-chloro-5-(3-((2-methoxyethyl)amino)-6-quinoxalinyl)-3-pyridinyl)-4-fluorobenzenesulfonamide] | 0.0595 µM | 0.0334 µM |  |
| COc1nc(-c2cnc(Cl)c(NS(=O)(=O)c3ccc(F)cc3)c2)cc2cccnc12 [Example 76, N-(2-Chloro-5-(8-methoxy-1,7-naphthyridin-6-yl)pyridin-3-yl)-4-fluorobenzenesulfonamide] | 0.806 µM |  |  |
| CN(C)c1ccnc2ccc(-c3cnc(Cl)c(NS(=O)(=O)c4ccc(F)cc4)c3)cc12 [Example 97, N-(2-chloro-5-(4-(dimethylamino)-6-quinolinyl)-3-pyridinyl)-4-fluorobenzenesulfonamide] |  |  | 0.111 µM |
| COCCNc1ccnc2ccc(-c3cnc(Cl)c(NS(=O)(=O)c4ccc(F)cc4)c3)cc12 [Example 98, N-(2-chloro-5-(4-((2-methoxyethyl)amino)-6-quinolinyl)-3-pyridinyl)-4-fluorobenzenesulfonamide] |  |  | 1.16 µM |
